Measured values reported in patent publication US7238720B2, “Pharmaceutical use of N-carbamoylazole derivatives” (Eisai R & D Management Co. Ltd., priority 2001, dated 2007).
pIC50: −log10 of the molar value.

Columns and labels:
[1] = molecular target: T1, DPP-IV, obtained from porcine kidneys (Sus scrofa, UniProt P22411); assay: Measurement of DPPIV inhibiting effects (Gly-Pro-p-nitroanilide, absorbance at 405 nm); assay type: biochemical; settings: porcine kidney DPP-IV 10 mU/mL, 20 min preincubation, Gly-Pro-p-nitroanilide 0.33 mM, pH 7.4
T1 construct: DPP-IV, obtained from porcine kidneys; from tissue; host or cells: porcine kidney
T1 sequence (P22411 whole entry): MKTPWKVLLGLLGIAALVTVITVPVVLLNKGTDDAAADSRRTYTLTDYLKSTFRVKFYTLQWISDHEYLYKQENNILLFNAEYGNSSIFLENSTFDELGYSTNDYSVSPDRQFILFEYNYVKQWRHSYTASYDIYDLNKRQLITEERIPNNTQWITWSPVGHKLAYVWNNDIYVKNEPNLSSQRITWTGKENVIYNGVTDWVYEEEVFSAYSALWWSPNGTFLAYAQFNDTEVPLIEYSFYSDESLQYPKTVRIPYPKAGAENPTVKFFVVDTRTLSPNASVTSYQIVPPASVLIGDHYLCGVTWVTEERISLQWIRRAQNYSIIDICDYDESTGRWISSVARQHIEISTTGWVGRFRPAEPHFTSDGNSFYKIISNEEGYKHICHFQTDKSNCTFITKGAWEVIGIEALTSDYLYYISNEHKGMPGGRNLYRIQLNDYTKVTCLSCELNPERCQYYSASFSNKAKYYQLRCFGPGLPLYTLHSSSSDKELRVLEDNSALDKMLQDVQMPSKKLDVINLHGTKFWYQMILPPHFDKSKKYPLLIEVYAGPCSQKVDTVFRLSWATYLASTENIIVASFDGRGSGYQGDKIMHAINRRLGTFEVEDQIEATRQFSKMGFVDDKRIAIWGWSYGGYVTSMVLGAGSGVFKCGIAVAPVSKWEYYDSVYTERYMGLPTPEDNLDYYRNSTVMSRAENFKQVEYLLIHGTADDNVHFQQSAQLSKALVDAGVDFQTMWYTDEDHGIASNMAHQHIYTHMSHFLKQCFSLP
Description: Measurement of DPPIV Inhibiting Effects
DPP-IV, obtained from porcine kidneys, was dissolved in a reaction buffer solution (50 mM Tris-HCl, pH 7.4, 0.1% BSA) such that the concentration of DPP-IV was at 10 mU/mL. This solution (110 μl) was placed into test tubes, to which compounds to be tested were further added at a quantity of 15 μl and incubated at room temperature for 20 minutes. Twenty-five microliters of a solution in which Gly-Pro-p-nitroanilide was dissolved at 2 mM was added (final concentration, 0.33 mM) to start the enzymatic reaction. The reaction time was 20 minutes. The reaction was stopped by the addition of 25 μl of 1 N phosphoric acid.

male C57BL/6N mice = assay: Glucose-tolerance improving effects in normal mice, Experiments 1 and 2 (compound given orally mixed with glucose); assay type: in vivo; settings: for Blood Glucose, At Indicated Times (min.) After Oral Administration: mean ± standard error
Description: Test for Identifying Glucose-Tolerance Improving Effects
Effects on Glucose-Tolerance Ability of Normal Mice
Animals: Five or six male C57BL/6N mice per group (purchased from Charles River Japan, Inc.).
Compounds to be tested were suspended in a 0.5% aqueous solution of methylcellulose and mixed with an equal volume of a glucose solution, and administered orally at a volume of 10 ml/kg at doses indicated in Tables below. Vehicle control groups received orally a mixture of a 0.5% aqueous solution of methylcellulose and an equal volume of a glucose solution at a volume of 10 ml/kg. Glucose was given at a dose of 2 g/kg.
The blood was drawn from the tail vein immediately before and at 30, 60, and 120 minutes after the administration of mixed solutions of the compounds to be tested and glucose, and subjected to the measurement of the blood glucose value.
The tail vein of the mice was injured, without anesthesia, with a razor to cause slight bleeding. Ten microliters of blood was collected, and mixed immediately with […] of 0.6 M perchloric acid. The glucose in supernatants obtained by centrifugation (1500 g, 10 min. 4° C., in a cooled centrifuge GS-6KR from Beckman Ltd.) was determined employing a Glucose CII Test Wako kit (Wako Pure Chemical Industries, Ltd.).
The results are expressed by mean value±standard error.

| SMILES | pIC50 [1] | also measured |
| --- | --- | --- |
| CN(C)C(=O)n1cnc(S(=O)(=O)[C@@H]2C[C@@H]3CC[C@H]2C3)n1 (relative stereo) [Example 13, 3-(Endo-norbornan-2-yl)sulfonyl-1-dimethylcarbamoyl-1H-1,2,4-triazole] | 6.79 | Blood Glucose, At Indicated Times (min.) After Oral Administration (male C57BL/6N mice; Experiment 2, 3 mg/kg oral with glucose 2 g/kg, 0 min (immediately before administration)): 73.9 ± 3.0 mg/dL; Blood Glucose, At Indicated Times (min.) After Oral Administration (male C57BL/6N mice; Experiment 2, 3 mg/kg oral with glucose 2 g/kg, 30 min): 177.7 ± 6.3 mg/dL; Blood Glucose, At Indicated Times (min.) After Oral Administration (male C57BL/6N mice; Experiment 2, 3 mg/kg oral with glucose 2 g/kg, 60 min): 139.7 ± 6.7 mg/dL; Blood Glucose, At Indicated Times (min.) After Oral Administration (male C57BL/6N mice; Experiment 2, 3 mg/kg oral with glucose 2 g/kg, 120 min): 92.5 ± 2.4 mg/dL; Blood Glucose, At Indicated Times (min.) After Oral Administration (male C57BL/6N mice; Experiment 2, 10 mg/kg oral with glucose 2 g/kg, 0 min (immediately before administration)): 73.3 ± 2.8 mg/dL; Blood Glucose, At Indicated Times (min.) After Oral Administration (male C57BL/6N mice; Experiment 2, 10 mg/kg oral with glucose 2 g/kg, 30 min): 159.9 ± 9.9 mg/dL; Blood Glucose, At Indicated Times (min.) After Oral Administration (male C57BL/6N mice; Experiment 2, 10 mg/kg oral with glucose 2 g/kg, 60 min): 129.3 ± 9.1 mg/dL; Blood Glucose, At Indicated Times (min.) After Oral Administration (male C57BL/6N mice; Experiment 2, 10 mg/kg oral with glucose 2 g/kg, 120 min): 90.6 ± 3.2 mg/dL; Blood Glucose, At Indicated Times (min.) After Oral Administration (male C57BL/6N mice; Experiment 2, 30 mg/kg oral with glucose 2 g/kg, 0 min (immediately before administration)): 70.4 ± 4.0 mg/dL; Blood Glucose, At Indicated Times (min.) After Oral Administration (male C57BL/6N mice; Experiment 2, 30 mg/kg oral with glucose 2 g/kg, 30 min): 148.7 ± 5.1 mg/dL; Blood Glucose, At Indicated Times (min.) After Oral Administration (male C57BL/6N mice; Experiment 2, 30 mg/kg oral with glucose 2 g/kg, 60 min): 127.3 ± 5.9 mg/dL; Blood Glucose, At Indicated Times (min.) After Oral Administration (male C57BL/6N mice; Experiment 2, 30 mg/kg oral with glucose 2 g/kg, 120 min): 93.7 ± 2.3 mg/dL; Blood Glucose, At Indicated Times (min.) After Oral Administration (male C57BL/6N mice; Experiment 2, 100 mg/kg oral with glucose 2 g/kg, 0 min (immediately before administration)): 72.0 ± 2.1 mg/dL; Blood Glucose, At Indicated Times (min.) After Oral Administration (male C57BL/6N mice; Experiment 2, 100 mg/kg oral with glucose 2 g/kg, 30 min): 147.1 ± 16.2 mg/dL; Blood Glucose, At Indicated Times (min.) After Oral Administration (male C57BL/6N mice; Experiment 2, 100 mg/kg oral with glucose 2 g/kg, 60 min): 133.7 ± 8.8 mg/dL; Blood Glucose, At Indicated Times (min.) After Oral Administration (male C57BL/6N mice; Experiment 2, 100 mg/kg oral with glucose 2 g/kg, 120 min): 106.2 ± 5.4 mg/dL; effect on glucose-tolerance ability of normal mice (male C57BL/6N mice; oral administration, Experiments 1 and 2, result in words): distinct effect |
| CN(C)C(=O)n1cnc(S(=O)(=O)Cc2ccccc2)n1 [Example 2, 3-Benzylsulfonyl-1-dimethylcarbamoyl-1H-1,2,4-triazole] | 5.86 | Blood Glucose, At Indicated Times (min.) After Oral Administration (male C57BL/6N mice; Experiment 1, 30 mg/kg oral with glucose 2 g/kg, 0 min (immediately before administration)): 75.8 ± 1.5 mg/dL; Blood Glucose, At Indicated Times (min.) After Oral Administration (male C57BL/6N mice; Experiment 1, 30 mg/kg oral with glucose 2 g/kg, 30 min): 159.8 ± 5.5 mg/dL; Blood Glucose, At Indicated Times (min.) After Oral Administration (male C57BL/6N mice; Experiment 1, 30 mg/kg oral with glucose 2 g/kg, 60 min): 133.8 ± 4.1 mg/dL; Blood Glucose, At Indicated Times (min.) After Oral Administration (male C57BL/6N mice; Experiment 1, 30 mg/kg oral with glucose 2 g/kg, 120 min): 109.6 ± 3.0 mg/dL |
| Cc1cc(C)c([S+]([O-])c2ncn(C(=O)N(C)C)n2)c(C)c1 (stereo not drawn) [Example 39, 3-(2,4,6-Trimethylphenyl)sulfinyl-1-dimethylcarbamoyl-1H-1,2,4-triazole] | 7.64 |  |
| Cc1cccc(OCC(F)(F)F)c1S(=O)(=O)c1ncn(C(=O)N(C)C)n1 [Example 41, 3-[2-(2,2,2-Trifluoroethyl)oxy-6-methylphenyl]sulfonyl-1-dimethyl-carbamoyl-1H-1,2,4-triazole] | 8.37 |  |
| COCCOc1cccc(C)c1Sc1ncn(C(=O)N(C)C)n1 [Example 42, 3-[2-(2-Methoxyethyl)oxy-6-methylphenyl]thio-1-dimethylcarbamoyl-1H-1,2,4-triazole] | 6.26 |  |
| CN(C)C(=O)n1cnc(Sc2cc(F)c(C#N)cc2F)n1 [Example 44, 3-(4-Cyano-2,5-difluorophenyl)thio-1-dimethylcarbamoyl-1H-1,2,4-triazole] | 6.50 |  |
| Cc1noc(C)c1Sc1ncn(C(=O)N(C)C)n1 [Example 46, 3-(3,5-Dimethylisoxazol-4-yl)thio-1-dimethylcarbamoyl-1H-1,2,4-triazole] | 5.75 |  |
| Cc1nn(-c2ccccc2)c(C)c1Sc1ncn(C(=O)N(C)C)n1 [Example 48, 3-(3,5-Dimethyl-1-phenylpyrazol-4-yl)thio-1-dimethylcarbamoyl-1H-1,2,4-triazole] | 5.81 |  |
| Cc1nc2ccccn2c1Sc1ncn(C(=O)N(C)C)n1 [Example 50, 3-(2-Methylimidazo[1,2-a]pyridin-3-yl)thio-1-dimethylcarbamoyl-1H-1,2,4-triazole] | 5.27 |  |
| CN(C)C(=O)n1cnc(Sc2cccc(Br)n2)n1 [Example 52, 3-(6-Bromo-2-pyridyl)thio-1-dimethylcarbamoyl-1H-1,2,4-triazole] | 5.32 |  |
| CN(C)C(=O)n1cnc(S(=O)(=O)c2cccc(Br)n2)n1 [Example 53, 3-(6-Bromo-2-pyridyl)sulfonyl-1-dimethylcarbamoyl-1H-1,2,4-triazole] | 6.45 |  |
| CN(C)C(=O)n1cnc(S(=O)(=O)N2CCc3ccccc32)n1 [Example 57, 3-(2,3-Dihydro-1H-indol-1-yl)sulfonyl-1-dimethylcarbamoyl-1H-1,2,4-triazole] | 6.64 |  |
| Cc1ccc(S(=O)(=O)c2ccn(C(=O)N(C)C)n2)cc1 [Example 59, 3-(4-Toluenesulfonyl)-1-dimethylcarbamoyl-1H-pyrazole] | 5.37 |  |
| Cc1ccc(S(=O)(=O)c2ncn(C(=O)N(C)C)n2)cc1 [Example 60, 3-(4-Toluenesulfonyl)-1-dimethylcarbamoyl-1H-1,2,4-triazole] | 6.47 |  |

More lines, in order of rising pIC50 [1], values ahead:

| pIC50 [1] | SMILES | also measured |
| --- | --- | --- |
| 6.79 | CN(C)C(=O)n1cnc(S(=O)(=O)N2CCCCC2)n1 [Example 54, 3-(Piperidin-1-yl)sulfonyl-1-dimethylcarbamoyl-1H-1,2,4-triazole] |  |
| 6.97 | Cc1nc2ccccn2c1S(=O)(=O)c1ncn(C(=O)N(C)C)n1 [Example 51, 3-(2-Methylimidazo[1,2-a]pyridin-3-yl)sulfonyl-1-dimethylcarbamoyl-1H-1,2,4-triazole] |  |
| 6.99 | Cc1noc(C)c1S(=O)(=O)c1ncn(C(=O)N(C)C)n1 [Example 47, 3-(3,5-Dimethylisoxazol-4-yl)sulfonyl-1-dimethylcarbamoyl-1H-1,2,4-triazole] |  |
| 7.00 | Cc1cc(C)n(S(=O)(=O)c2ncn(C(=O)N(C)C)n2)n1 [Example 56, 3-(3,5-Dimethylpyrazol-1-yl)sulfonyl-1-dimethylcarbamoyl-1H-1,2,4-triazole] |  |
| 7.02 | CN(C)C(=O)n1cnc(S(=O)(=O)N2C3CCCC2CC3)n1 [Example 55, 3-(8-Azabicyclo[3.2.1]octan-8-yl)sulfonyl-1-dimethylcarbamoyl-1H-1,2,4-triazole] |  |
| 7.49 | CN(C)C(=O)n1cnc(S(=O)(=O)c2cc(F)c(C#N)cc2F)n1 [Example 45, 3-(4-Cyano-2,5-difluorophenyl)sulfonyl-1-dimethylcarbamoyl-1H-1,2,4-triazole] |  |
| 7.59 | Cc1nn(-c2ccccc2)c(C)c1S(=O)(=O)c1ncn(C(=O)N(C)C)n1 [Example 49, 3-(3,5-Dimethyl-1-phenylpyrazol-4-yl)sulfonyl-1-dimethylcarbamoyl-1H-1,2,4-triazole] |  |
| 7.80 | CN(C)C(=O)n1cnc(S(=O)(=O)N(C)c2ccc(Cl)cc2)n1 [Example 58, 3-[N-(4-chlorophenyl)-N-methylamino]sulfonyl-1-dimethylcarbamoyl-1H-1,2,4-triazole] |  |
| 8.00 | CCCN(C)C(=O)n1cnc(S(=O)(=O)c2c(C)cc(C)cc2C)n1 [Example 37, 3-(2,4,6-Trimethylphenyl)sulfonyl-1-(N-methyl-N-propylcarbamoyl)-1H-1,2,4-triazole] |  |
| 8.79 | Cc1cc(C)c(S(=O)(=O)c2ncn(C(=O)N(C)C(C)C)n2)c(C)c1 [Example 38, 3-(2,4,6-Trimethylphenyl)sulfonyl-1-(N-methyl-N-isopropylcarbamoyl)-1H-1,2,4-triazole] |  |
